Laboratory results as given in patent US8895610B1, “Platinum (IV) compounds targeting zinc finger domains” (priority 2007, dated 2014).
Where “and” joins values, the source holds several entries; their conditions need not be identical. Equal values may be shown once.

What was measured:
FIV Petaluma = assay: p25 antigen evaluation of antiviral activity in MBM cells; format: cell-based, feline; settings: for p25 Viral Antigen (OD), average / p25 Viral Antigen (OD), individual wells: 7 days post infection, K+ = 1.195, K− = 0.08
Experimental: Antiviral activity in MBM was determined by inoculating 200 Tissue Culture Infectious Doses 50% FIV Petaluma (Talbott, 1989) in 100 μL RPMI 1640 medium into quadruplicate wells of 96-well microplates containing 2×10^5 cells in 100 μL medium. The cultures were monitored by measuring FIV p25 capsid protein (Lombardi, 1994) release in the supernatants after 7 days of incubation at 37° C. in 5% CO2 (Table 12). Half the media (without drug) was replaced on days 2 and 6 after infection and initial drug exposure. […] Drugs are identified as: CPA-7 (#1); NAD (#2); cisplatin (#3) and FX101 (#4). […]. […] A minimum of 50% inhibition in vitro is required to offset viral infectivity and replication in vivo.

STAT3 = STAT3 (Homo sapiens, UniProt P40763); settings: have been shown; cited from earlier work
STAT3, sequence (P40763 whole entry, species assumed): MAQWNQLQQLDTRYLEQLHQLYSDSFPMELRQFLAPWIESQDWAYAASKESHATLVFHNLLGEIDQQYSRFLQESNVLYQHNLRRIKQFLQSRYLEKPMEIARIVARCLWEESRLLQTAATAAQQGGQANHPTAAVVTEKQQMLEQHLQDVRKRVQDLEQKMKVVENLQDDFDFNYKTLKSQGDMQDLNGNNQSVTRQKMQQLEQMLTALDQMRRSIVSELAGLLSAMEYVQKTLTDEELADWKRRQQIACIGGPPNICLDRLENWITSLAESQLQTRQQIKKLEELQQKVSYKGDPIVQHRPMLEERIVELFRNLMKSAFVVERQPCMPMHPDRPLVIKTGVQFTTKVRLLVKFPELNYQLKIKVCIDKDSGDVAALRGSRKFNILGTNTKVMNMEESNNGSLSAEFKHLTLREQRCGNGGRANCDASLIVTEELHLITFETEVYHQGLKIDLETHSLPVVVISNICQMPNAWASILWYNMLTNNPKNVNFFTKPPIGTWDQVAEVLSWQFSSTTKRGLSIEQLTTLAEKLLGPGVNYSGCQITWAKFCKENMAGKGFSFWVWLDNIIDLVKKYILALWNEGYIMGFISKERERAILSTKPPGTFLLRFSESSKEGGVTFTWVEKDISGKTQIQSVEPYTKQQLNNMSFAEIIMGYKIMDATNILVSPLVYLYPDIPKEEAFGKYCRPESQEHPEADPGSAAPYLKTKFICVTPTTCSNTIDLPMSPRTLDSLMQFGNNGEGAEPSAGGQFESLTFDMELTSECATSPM

SMILES | inhibition (elimination of all measures of virus) by day 7 (FIV Petaluma; 7 days, concentrations used 5 and 20 μM) [%] | p25 Viral Antigen (OD), average (FIV Petaluma; conc 5 μM) [OD] | p25 Viral Antigen (OD), individual wells (FIV Petaluma; conc 5 μM) | p25 Viral Antigen (OD), average (FIV Petaluma; conc 20 μM) [OD] | p25 Viral Antigen (OD), individual wells (FIV Petaluma; conc 20 μM) | antiviral effectiveness (in words) (FIV Petaluma; p25 release, MBM cells, 7 days) | inhibition of STAT3 (STAT3)
[NH2][Pt]([NH2])([Cl])([Cl])([Cl])[N+](=O)[O-] [Drug #1] | < 30 | 1.0943 | 1.093 OD and 1.122 OD and 1.068 OD | 0.8163 | 0.788 OD and 0.825 OD and 0.836 OD | insignificantly effective | inhibit STAT3
N.N.[Cl][Pt][Cl] [Drug #3, cisplatin] |  | 1.0157 | 1.04 OD and 1.021 OD and 0.986 OD | 1.0133 | 1.014 OD and 1.033 OD and 0.993 OD |  | 
